The structures appear in SMILES notation.

As usually defined, the AC50 is the concentration giving half of the maximal activity seen.

The first experiment concerns the target T1, human PAH with the R408W mutation (Homo sapiens, UniProt P00439, R408W).
T1 construct: expressed in transfected cells
T1 sequence (P00439 1-452 R408W): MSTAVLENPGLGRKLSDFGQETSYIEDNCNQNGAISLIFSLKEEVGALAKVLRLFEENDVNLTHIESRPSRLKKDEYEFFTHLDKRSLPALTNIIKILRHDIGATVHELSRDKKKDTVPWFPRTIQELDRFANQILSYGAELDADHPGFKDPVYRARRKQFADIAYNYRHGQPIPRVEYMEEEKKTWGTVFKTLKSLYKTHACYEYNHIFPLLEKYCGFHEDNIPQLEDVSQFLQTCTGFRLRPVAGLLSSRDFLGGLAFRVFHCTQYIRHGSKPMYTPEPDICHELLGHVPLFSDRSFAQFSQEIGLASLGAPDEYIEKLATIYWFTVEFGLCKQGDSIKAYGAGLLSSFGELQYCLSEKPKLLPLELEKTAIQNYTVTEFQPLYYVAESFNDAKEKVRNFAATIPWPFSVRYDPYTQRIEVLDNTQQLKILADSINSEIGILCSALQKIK
The experiment in a line: Cell Based Phenylalanine Flux Assay.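 Note: Ten-point dose curve from 2-fold serial dilutions, run in duplicate at 0.5% DMSO final, tracer step used 20 µM sepiapterin and 800 µM labeled phenylalanine.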 Also on record: scale not given here. The conditions noted are these: A375 cells expressing R408W PAH; 24 hrs with compound, then 20 μM sepiapterin and 800 μM 13C9,15N-Phenylalanine for 4 hours; 13C-Tyrosine in media by LC-MS; average where tested multiple times.
As to `Cc1cccn2nc(C3c4nc[nH]c4CCN3C(=O)c3ocnc3C(F)(F)F)cc12` (centres unmarked), the AC50 result is recorded as “E, E”.

Staying with this experiment, now noted: A375 cells expressing R408W PAH; 24 hrs with compound, then 20 μM sepiapterin and 800 μM 13C9,15N-Phenylalanine for 4 hours; 13C-Tyrosine in media by LC-MS; average where tested multiple times; read-out: AC50.
For `O=C(c1nnc(-c2cn[nH]c2)o1)N1CCc2[nH]cnc2C1c1cc2c(F)cccn2n1` (centres unmarked), the AC50 lay in the range of 1 to 5 µM.

Staying with this experiment, now noted: A375 cells expressing human R408W PAH; 24 hrs compound incubation; 13C-Tyrosine by LC-MS; average where tested multiple times; read-out: AC50.
As to `O=C(c1oc(-c2ccccn2)nc1C1CC1)N1CCc2[nH]cnc2[C@H]1c1cc2ccccn2n1` [Example 622, (S)-(4-cyclopropyl-2-(pyridin-2-yl)oxazol-5-yl)(4-(pyrazolo[1,5-a]pyridin-2-yl)-6,7-dihydro-1H-imidazo[4,5-c]pyridin-5(4H)-yl)methanone], the AC50 is 0.5 to 1 µM.
Same read-out and setting: the value for `Cc1ncoc1C(=O)N1CCc2[nH]cnc2[C@@H]1c1cc2cccc(C(F)(F)F)n2n1` [Example 1199] was 1 to 5 µM; that for `Cc1cccc2cc([C@H]3c4nc[nH]c4CCN3C(=O)c3nnc(C(C)(C)F)o3)nn12` [Example 939, (R)-(5-(2-fluoropropan-2-yl)-1,3,4-oxadiazol-2-yl)(4-(7-methylpyrazolo[1,5-a]pyridin-2-yl)-6,7-dihydro-1H-imidazo[4,5-c]pyridin-5(4H)-yl)methanone] was over 5 µM; that for `O=C(c1nnc(-c2cnccn2)o1)N1CCc2[nH]cnc2[C@H]1c1cc2cccc(C(F)(F)F)n2n1` [Example 1361, (S)-(5-(pyrazin-2-yl)-1,3,4-oxadiazol-2-yl)(4-(7-(trifluoromethyl)pyrazolo [1,5-a]pyridin-2-yl)-6,7-dihydro-1H-imidazo[4,5-c]pyridin-5(4H)-yl)methanone] was 0.5 to 1 µM.
Still for that read-out and setting: the value for `Cn1cc(-c2nnc(C(=O)N3CCc4[nH]cnc4[C@H]3c3cc4cccc(F)n4n3)o2)cn1` [Example 1224, (S)-(4-(7-fluoropyrazolo[1,5-a]pyridin-2-yl)-6,7-dihydro-1H-imidazo[4,5-c]pyridin-5(4H)-yl)(5-(1-methyl-1H-pyrazol-4-yl)-1,3,4-oxadiazol-2-yl) methanone] was 0.5 to 1 µM; that for `C[C@H](O)c1nc(C(F)F)c(C(=O)N2CCc3[nH]cnc3[C@H]2c2cc3c(F)cccn3n2)o1` [Example 712, (4-(difluoromethyl)-2-((S)-1-hydroxyethyl)oxazol-5-yl)((S)-4-(4-fluoropyrazolo [1,5-a]pyridin-2-yl)-6,7-dihydro-1H-imidazo[4,5-c]pyridin-5(4H)-yl)methanone] was under 0.5 µM; that for `O=C(c1nnc(-c2cnn(C(F)F)c2)o1)N1CCc2[nH]cnc2[C@@H]1c1cc2c(F)cccn2n1` [Example 797, (R)-(5-(1-(difluoromethyl)-1H-pyrazol-4-yl)-1,3,4-oxadiazol-2-yl)(4-(4-fluoropyrazolo[1,5-a]pyridin-2-yl)-6,7-dihydro-1H-imidazo[4,5-c]pyridin-5(4H)-yl)methanone] was over 5 µM.
Regarding `Cc1cccn2nc([C@@H]3c4nc[nH]c4CCN3C(=O)c3nnc(-c4cccnc4)o3)cc12` [Example 894, (S)-(4-(4-methylpyrazolo [1,5-a]pyridin-2-yl)-6,7-dihydro-1H-imidazo[4,5-c]pyridin-5(4H)-yl)(5-(pyridin-3-yl)-1,3,4-oxadiazol-2-yl) methanone], the AC50 was under 0.5 µM.
As to `Cc1cccn2nc([C@H]3c4nc[nH]c4CCN3C(=O)c3ncnn3C)cc12` [Example 839, (R)-(1-methyl-1H-1,2,4-triazol-5-yl)(4-(4-methylpyrazolo[1,5-a]pyridin-2-yl)-6,7-dihydro-1H-imidazo[4,5-c]pyridin-5(4H)-yl)methanone], the AC50 lay within 1 to 5 µM.
Consider `O=C(c1nnc(-c2ccccn2)o1)N1CCc2[nH]cnc2[C@@H]1c1cc2c(C(F)F)cccn2n1` [Example 1315, (R)-(4-(4-(difluoromethyl)pyrazolo[1,5-a]pyridin-2-yl)-6,7-dihydro-1H-imidazo [4,5-c]pyridin-5(4H)-yl)(5-(pyridin-2-yl)-1,3,4-oxadiazol-2-yl)methanone], for which the half-maximal activity concentration (AC50) lay in the range of 1 to 5 µM.

The experiment is the same for the next values; noted with them: A375 cells expressing human R408W PAH; 24 hrs with compound, then sepiapterin and 13C9,15N-Phenylalanine for 4 hours; 13C-Tyrosine by LC-MS; average where tested multiple times; read-out: AC50.
On to `O=C(c1nnc(-c2cnn(C(F)(F)F)c2)o1)N1CCc2[nH]cnc2[C@@H]1c1cc2c(C(F)(F)F)cccn2n1` [Example 1539, (R)-(5-(1-(trifluoromethyl)-1H-pyrazol-4-yl)-1,3,4-oxadiazol-2-yl)(4-(4-(trifluoromethyl)pyrazolo[1,5-a]pyridin-2-yl)-6,7-dihydro-1H-imidazo[4,5-c]pyridin-5(4H)-yl)methanone], for which the half-maximal activity concentration (AC50) was over 5 µM.
`O=C(c1nnc(C2CCC2)o1)N1CCc2[nH]cnc2[C@H]1c1cc2c(Cl)cccn2n1` [Example 1517, (S)-(4-(4-chloropyrazolo [1,5-a]pyridin-2-yl)-6,7-dihydro-1H-imidazo[4,5-c]pyridin-5(4H)-yl)(5-cyclobutyl-1,3,4-oxadiazol-2-yl)methanone]: the concentration at half-maximal activity (AC50) is under 0.5 µM.
On the same count and under the same terms, the value for `Cc1cccnc1-c1nnc(N2CCc3[nH]cnc3[C@@H]2c2cc3cccc(Cl)n3n2)o1` [Example 2306, (R)-2-(4-(7-chloropyrazolo [1,5-a]pyridin-2-yl)-1,4,6,7-tetrahydro-5H-imidazo [4,5-c]pyridin-5-yl)-5-(3-methylpyridin-2-yl)-1,3,4-oxadiazole] was over 5 µM; that for `O=C(c1cnc(-c2cnccn2)o1)N1CCc2[nH]cnc2[C@H]1c1cc2c(C(F)F)cccn2n1` [Example 2242, (S)-(4-(4-(difluoromethyl)pyrazolo[1,5-a]pyridin-2-yl)-1,4,6,7-tetrahydro-5H-imidazo [4,5-c]pyridin-5-yl)(2-(pyrazin-2-yl)oxazol-5-yl) methanone] was 0.5 to 1 µM; that for `O=C(c1ocnc1C1CC1)N1CCc2[nH]cnc2[C@@H]1c1cc2c(C(F)F)cccn2n1` [Example 2038, (R)-(4-cyclopropyloxazol-5-yl)(4-(4-(difluoromethyl)pyrazolo [1,5-a]pyridin-2-yl)-1,4,6,7-tetrahydro-5H-imidazo[4,5-c]pyridin-5-yl)methanone] was 1 to 5 µM.
The same measure, in the same setting: in the case of `Cc1cccc(-c2nnc(C(=O)N3CCc4[nH]cnc4[C@H]3c3cc4c(C(F)(F)F)cccn4n3)o2)n1` [Example 1433, (S)-(5-(6-methylpyridin-2-yl)-1,3,4-oxadiazol-2-yl)(4-(4-(trifluoromethyl)pyrazolo [1,5-a]pyridin-2-yl)-6,7-dihydro-1H-imidazo[4,5-c]pyridin-5(4H)-yl)methanone] it was under 0.5 µM; in that of `Cc1ncccc1-c1nnc(N2CCc3[nH]cnc3[C@@H]2c2cc3c(Cl)cccn3n2)o1` [Example 2237, (R)-2-(4-(4-chloropyrazolo [1,5-a]pyridin-2-yl)-1,4,6,7-tetrahydro-5H-imidazo [4,5-c]pyridin-5-yl)-5-(2-methylpyridin-3-yl)-1,3,4-oxadiazole], over 5 µM.
Same read-out and setting: in the case of `Cc1ncccc1-c1nnc(N2CCc3[nH]cnc3[C@H]2c2cc3c(F)cccn3n2)o1` [Example 2212, (S)-2-(4-(4-fluoropyrazolo [1,5-a]pyridin-2-yl)-1,4,6,7-tetrahydro-5H-imidazo [4,5-c]pyridin-5-yl)-5-(2-methylpyridin-3-yl)-1,3,4-oxadiazole] it was under 0.5 µM; in that of `O=C(c1cnn2cc(-c3ccccn3)ccc12)N1CCc2[nH]cnc2[C@H]1c1cc2c(C(F)(F)F)cccn2n1` [Example 1550, (S)-(6-(pyridin-2-yl)pyrazolo [1,5-a]pyridin-3-yl)(4-(4-(trifluoromethyl)pyrazolo [1,5-a]pyridin-2-yl)-6,7-dihydro-1H-imidazo[4,5-c]pyridin-5(4H)-yl)methanone], under 0.5 µM; in that of `Cn1ccc(-c2nnc(C(=O)N3CCc4[nH]cnc4[C@@H]3c3cc4c(Br)cccn4n3)o2)n1` [Example 1888, (R)-(4-(4-bromopyrazolo [1,5-a]pyridin-2-yl)-1,4,6,7-tetrahydro-5H-imidazo[4,5-c]pyridin-5-yl)(5-(1-methyl-1H-pyrazol-3-yl)-1,3,4-oxadiazol-2-yl)methanone], over 5 µM.
For `Cc1cccn2nc([C@H]3c4nc[nH]c4CCN3c3ccccc3)cc12` [Example 2310, (R)-4-(4-methylpyrazolo [1,5-a]pyridin-2-yl)-5-phenyl-4,5,6,7-tetrahydro-1H-imidazo[4,5-c]pyridine], the AC50 lay within 1 to 5 µM.
On the same count and under the same terms, in the case of `Cc1cccc2cc([C@@H]3c4nc[nH]c4CCN3C(=O)c3nnc(C(C)C)o3)nn12` [Example 1490, (S)-(5-isopropyl-1,3,4-oxadiazol-2-yl)(4-(7-methylpyrazolo[1,5-a]pyridin-2-yl)-6,7-dihydro-1H-imidazo[4,5-c]pyridin-5(4H)-yl)methanone] it was 0.5 to 1 µM; in that of `O=C(c1ocnc1C1CC1)N1CCc2[nH]cnc2[C@H]1c1cc2c(Cl)cccn2n1` [Example 2040, (S)-(4-(4-chloropyrazolo [1,5-a]pyridin-2-yl)-1,4,6,7-tetrahydro-5H-imidazo [4,5-c]pyridin-5-yl)(4-cyclopropyloxazol-5-yl) methanone], under 0.5 µM; in that of `O=C(c1cn[nH]c1C(F)F)N1CCc2[nH]cnc2[C@H]1c1cc2ccccn2n1` [Example 2366, (S)-(5-(difluoromethyl)-1H-pyrazol-4-yl)(4-(pyrazolo[1,5-a]pyridin-2-yl)-6,7-dihydro-1H-imidazo[4,5-c]pyridin-5(4H)-yl)methanone], 1 to 5 µM.

For the origin of these results see US12673961B2 (Agios Pharmaceuticals, Inc., priority 2022, dated 2026).
